Here are results for 25 compounds from patent US12492182B2, “Hydroxytriazine compounds and pharmaceutical use thereof” (Japan Tobacco Inc., priority 2015, dated 2025).

Where two headings read alike, the source gives them in different places.

The target in one assay is T1, human mPGES-1 (Homo sapiens, UniProt O14684).
T1 construct: made in house; host or cells: Chinese hamster ovary-derived cells (FreeStyle CHO-S), transient transfection of pcDNA3.1(+)/human mPGES-1; microsome fraction
T1 sequence (O14684 1-152): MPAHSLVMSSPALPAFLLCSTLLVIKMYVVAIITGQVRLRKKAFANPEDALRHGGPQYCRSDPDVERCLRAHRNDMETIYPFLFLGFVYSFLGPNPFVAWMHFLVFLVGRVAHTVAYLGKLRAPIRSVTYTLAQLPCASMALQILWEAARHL
The assay can be described thus: Evaluation of human mPGES-1 enzyme inhibitory activity (HTRF measurement of PGE2). The class given is biochemical. The conditions noted are these: IC50 value; microsome fraction of CHO-S cells expressing human mPGES-1, PGH2 substrate, PGE2 by HTRF; read-out: humans mPGES-1 enzyme inhibitory activity. As for the experimental part:
Experimental Example 1: Evaluation of Human mPGES-1 Enzyme Inhibitory Activity
The human mPGES-1 enzyme inhibitory activity of a test article was evaluated according to the report of Xu et al. (XU, D et al. MF63 [2-(6-chloro-1H-phenanthro[9,10-d]imidazol-2-yl)-isophthalonitrile], a selective microsomal prostaglandin E synthase-1 inhibitor relieves pyresis and pain in preclinical models of inflammation. J Pharmacol Exp Ther. September 2008, Vol. 326, No. 3, pages 754-763). The amount of PGE2 produced by human mPGES-1 in the presence of a test article was measured by the HTRF (homogeneous time resolved fluorescence) method, and the human mPGES-1 enzyme inhibitory activity of the test article was determined.
1) Preparation of Human mPGES-1 Expressing Cell Microsome Fraction
A DNA fragment containing human mPGES-1, which is added with a BamHI recognition cleavage sequence just before the translation initiation codon and an EcoRI recognition cleavage sequence just after the translation termination codon, was amplified by the PCR (Polymerase Chain Reaction) method using a human mPGES-1 expression plasmid DNA (pME-18S/iPGES-1) prepared in-house as a template. The purified DNA fragment was digested with BamHI and EcoRI, and ligated to pcDNA3.1(+) (Invitrogen, model number V790-20), similarly_digested with BamHI and EcoRI, by using a DNA Ligation kit ver. 2.1 (Takara Bio, model number 6022). The human mPGES-1 expression plasmid DNA was isolated from Escherichia coli DH5a (TOYOBO, model number DNA-903) transformed with the obtained ligation product. The base sequence of human mPGES-1 cloned to a vector was determined by the Dye Terminator method using BigDye Terminator v3.1 Cycle Sequencing Kit (Applied Biosystems, #4337455). The determined sequence was identical with the sequence of the protein translational region of human mPGES-1 (Accession number NM 004878) registered in the NCBI Reference Database.
Human mPGES-1 expression plasmid DNA was transfected into Chinese hamster ovary-derived cells (FreeStyle CHO-S Cell, Invitrogen, #R^800-07) by using a transgene reagent (FreeStyle MAX Reagent (Invitrogen, #16447-100)), and cultured with shaking (8% CO2, 37° C.) in a medium containing 8 mmol/L L-glutamine (GIBCO FreeStyle CHO Expression Medium, Invitrogen, #12651-022) for 48 hr.
The CHO-S cells were suspended in Homogenate Buffer (100 mmol/L potassium phosphate (pH 7.4), 250 mmol/L Sucrose, 100 mmol/L EDTA, complete EDTA free (Roche, #1873580)). Using an ultrasonic disruptor UD-201 (Tomy Seiko), the suspended cells were disrupted at output:3, duty cycle:50 for 30 seconds. The precipitate was removed by centrifugation (1,000×g, 5 min, 4° C.), and the supernatant was centrifuged (5,000×g, 10 min, 4° C.). The supernatant was further centrifuged (105,000×g, 60 min, 4° C.). The obtained precipitate was suspended in Resuspension Buffer (100 mmol/L potassium phosphate (pH 7.4), 250 mmol/L sucrose, 100 mmol/L EDTA, 10% glycerol) to give a microsome fraction.
The protein concentration of the microsome fraction was measured by the Bradford method (Protein Assay Kit, Bio-Rad). The microsome fraction was rapidly frozen in liquid nitrogen and preserved at −80° C. Human mPGES-1 in the microsome fraction was detected by Western Blot using rabbit anti-mPGES-1 polyclonal antibody (ThermoFisher Scientific, #PA1-10264).
2) Evaluation of Human mPGES-1 Enzyme Inhibitory Activity
A test article solution diluted with 0.1 mol/L potassium phosphate, pH 7.4 (hereinafter to be referred to as KPB) or DMSO (Nacalai Tesque, #13407-45) was added at 5 μL/well to 96 well V-bottom plate (Corning, #3363). The final DMSO concentration during the reaction was set to 2%(v/v). Furthermore, a microsome fraction of CHO-S cells expressing human mPGES-1, which was diluted with reduced GSH (12.5 mmol/L KPB solution, SIGMA, #G6529-25G) such that the protein concentration was 5 μg/mL, was added at 20 μL/well. […]

A further assay concerns A549 cell. The assay can be described thus: Evaluation of PGE2 production inhibitory action using A549 cell (IL-1β stimulated). The class given is cell-based, human. The conditions noted are these: Homo sapiens. As for the experimental part: Experimental Example 2: Evaluation of PGE2 Production Inhibitory Action Using A549 Cell
A549 cell (Japan Health Sciences Foundation Research Resources Bank), which is cell line derived from humans lung cancer, was suspended in assay medium (Ham's F-12K (Wako, #080-08565) containing 2% FBS (Hyclone Laboratories, #SH30910.03), 100 units/mL penicillin and 100 μg/mL streptomycin (Invitrogen, #15140-122)), the suspension was added at 2.5×10^4 cells/100 μL/well to 96 well flat-bottom plate (Corning, #353072), and the plate was left standing for 20 hr in a CO2 incubator set at 37° C. The test article was serially diluted with DMSO (Nacalai Tesque, #13407-45), and then 20-fold diluted with the assay medium to prepare a test article solution having a ten-fold concentration of the final concentration. The final DMSO concentration during the reaction was set to 0.5% (v/v). The medium was removed from the plate in which the cell was added, new assay medium was added at 160 μL/well to the plate, and the plate was left standing for 10 min in a CO2 incubator. Then, the test article solution was added at 20 μL/well to the plate, and the plate was left standing for 30 min in a CO2 incubator. Next, recombinant humans IL-1β (R&D Systems, #201-LB) as a stimulant to enhance PGE2 production due to increase of mPGES-1 mRNA expression was added at 20 μL/well (the final concentration was 1 ng/mL) to the plate, and the plate was left standing for 18 hr in a CO2 incubator. The supernatant was collected at 180 μL/well, and the PGE2 concentration was measured using Prostaglandin E2 assay (CISbio Bioassays, #62P2APEC) according to the manual. As the reference standard for analytical curve, PGE2 (Cayman Chemical, #14010) was used. Using EnVision 2104 (Perkin Elmer), the time-resolved fluorescence at 620 nm and 665 nm relative to the excitation light at 337 nm was measured. PGE2 concentration was extrapolated from the PGE2 analytical curve. Average of the PGE2 concentrations of the respectively-treated wells was used as the data.
The PGE2 production inhibitory activity (%) of the test article was calculated according to the following Formula 3. PGE2 production inhibitory activity(%)=(PGE2A−PGE2X)/(PGE2A−PGE2B)×100 [Formula 3] • PGE2A: PGE2 concentration of vehicle-treated well • PGE2B: PGE2 concentration of blank well (no addition of recombinant humans IL-1B) • PGE2X: PGE2 concentration of test article-treated well

The mark [1] stands for this setting: A549, 18 h, IC50 value, A549 cell, recombinant IL-1β 1 ng/mL, 18 hr, PGE2 in supernatant, read-out: cell PGE2 production inhibitory activity.
The mark [2] stands for this setting: A549, A549 cell, recombinant human IL-1β stimulation, read-out: cell PGE2 production inhibitory activity (IC50 value).

Regarding `CC(C)c1cc(-c2nc(O)nc(-c3cc(CNC(=O)C(C)(C)C(F)(F)F)ccc3Cl)n2)cc(C(C)C)c1` [Example 18], the IC50 on human mPGES-1 came to 5.3 nM; in the assay with A549 cell (setting [1]), 260 nM.
On to `CC(C)c1cc(-c2nc(O)nc(-c3cc(CNC(=O)C(C)(C(F)(F)F)C(F)(F)F)ccc3Cl)n2)ccc1Cl` [Example 88], for which the figures for the IC50 on human mPGES-1 and in the assay on A549 cell (setting [2]) were 19 nM and 1.6 nM, respectively.
Take `CCCCC(C)(C)C(=O)NCc1ccc(Cl)c(-c2nc(O)nc(-c3ccc(OCC)nc3)n2)c1` [Example 51]: the IC50 on human mPGES-1 was 0.6 nM; in the assay on A549 cell (setting [1]) it was 410 nM.
The matching figures for `CCC(C)(CC)C(=O)NCc1ccc(Cl)c(-c2nc(O)nc(-c3cccc(C(C)C)c3)n2)c1` [Example 15]: 0.5 nM and 120 nM.
In the case of `CCC[C@H](C)Oc1ccc(-c2nc(O)nc(-c3cc(CNC(=O)C4(C(F)(F)F)CCCC4)ccc3Cl)n2)cn1` [Example 140], the IC50 stood at 10 nM on human mPGES-1 and 0.8 nM with A549 cell (setting [2]).
In the case of `CCCOCCOc1ccc(-c2nc(O)nc(-c3cc(CNC(=O)C4(C(F)(F)F)CCCCC4)ccc3Cl)n2)cn1` [Example 69], the figures for the IC50 at human mPGES-1 and in the assay on A549 cell (setting [2]) were 2.3 nM and 8.1 nM, respectively.
Consider `CC(C)c1cccc(-c2nc(O)nc(-c3cc(CNC(=O)C(C)(C(F)(F)F)C(F)(F)F)ccc3Cl)n2)c1` [Example 90], for which the IC50 is 2.1 nM on human mPGES-1 and 3.9 nM in the assay with A549 cell (setting [2]).
For the compound `CC(C)(C)c1cc(-c2nc(O)nc(-c3cc(CNC(=O)C(C)(C)C(F)(F)F)ccc3Cl)n2)cc(C(C)(C)C)c1` [Example 20], the IC50 at human mPGES-1 came out at 30 nM; in the assay with A549 cell (setting [1]), 150 nM.
The matching figures for `CCOc1ccc(-c2nc(O)nc(-c3cc(CNC(=O)C(C)(C)C(F)(F)F)ccc3Cl)n2)cn1` [Example 27]: 0.7 nM and 79 nM.
Turning to `CC(C)c1cc(-c2nc(O)nc(-c3cc(CNC(=O)C4(CF)CCCC4)ccc3Cl)n2)ccc1Cl` [Example 95], the IC50 on human mPGES-1 amounted to 1.9 nM; with A549 cell (setting [2]), 17 nM.
The corresponding values for `COCCCCOc1ccc(-c2nc(O)nc(-c3cc(CNC(=O)C(C)(C)C(F)(F)F)ccc3Cl)n2)cn1` [Example 61] are 0.5 nM and 79 nM.
Consider `Cc1cc(-c2nc(O)nc(-c3cc(CNC(=O)C(C)(C)C(F)(F)F)ccc3Cl)n2)cc(C(C)(C)C)c1` [Example 11], for which the IC50 on human mPGES-1 was 0.2 nM; in the assay on A549 cell (setting [1]), 17 nM.
On to `CCC[C@H](C)Oc1ccc(-c2nc(O)nc(-c3cc(CNC(=O)C(C)(C)OC)ccc3Cl)n2)cn1` [Example 102], for which the IC50 at human mPGES-1 was found to be 1.1 nM; in the assay on A549 cell (setting [2]), 25 nM.
The matching figures for `CCC[C@@H](C)Oc1ccc(-c2nc(O)nc(-c3cc(CNC(=O)C(CC)(CC)C(F)F)ccc3Cl)n2)cn1` [Example 123]: 4 nM and 1.5 nM.
For the compound `CCC(OC)(C(=O)NCc1ccc(Cl)c(-c2nc(O)nc(-c3ccc(Cl)c(C(C)C)c3)n2)c1)C(F)(F)F` (centres unmarked) [Example 137], the IC50 on human mPGES-1 turned out to be 4.7 nM; in the assay with A549 cell (setting [2]), 2.6 nM.
Turning to `COc1ccc(-c2nc(O)nc(-c3cc(CNC(=O)C(C)(C)C(F)(F)F)ccc3Cl)n2)cc1C(C)C` [Example 35], the IC50 amounted to 2 nM on human mPGES-1 and 14 nM in the assay with A549 cell (setting [1]).
`CC(C)(C)c1cccc(-c2nc(O)nc(-c3cc(CNC(=O)C4(CF)CCCCC4)ccc3Cl)n2)c1` [Example 99]: the IC50 at human mPGES-1 amounted to 1.7 nM; in the assay with A549 cell (setting [2]), 11 nM.
With `CCCCCCOc1ccc(-c2nc(O)nc(-c3cc(CNC(=O)C(C)(C)C(F)(F)F)ccc3Cl)n2)cn1` [Example 23], the IC50 on human mPGES-1 turned out to be 7.2 nM; in the assay on A549 cell (setting [1]), 2.4 nM.
`COc1ccc(-c2nc(O)nc(-c3cc(CNC(=O)C(C)(C)C(F)(F)F)ccc3Cl)n2)cn1` [Example 26]: the IC50 at human mPGES-1 is 0.7 nM; in the assay with A549 cell (setting [1]), 260 nM.
The matching figures for `CCCCc1cccc(-c2nc(O)nc(-c3cc(CNC(=O)C(C)(C)C(F)(F)F)ccc3Cl)n2)c1` [Example 5]: 1.1 nM and 30 nM.
`CC(C)c1cccc(-c2nc(O)nc(-c3cc(CNC(=O)C4(F)CCCCC4)ccc3Cl)n2)c1` [Example 39]: the IC50 on human mPGES-1 was found to be 3.9 nM; with A549 cell (setting [1]), 57 nM.
Turning to `CCCCC(C)(C)C(=O)NCc1ccc(Cl)c(-c2nc(O)nc(-c3ccc(OCCC)nc3)n2)c1` [Example 47], the IC50 at human mPGES-1 amounted to 2.1 nM; in the assay with A549 cell (setting [1]) it was 100 nM.
`CO[C@](C)(C(=O)NCc1ccc(Cl)c(-c2nc(O)nc(-c3cccc(C4(C)CC4)c3)n2)c1)C(F)(F)F` [Example 65]: the IC50 at human mPGES-1 is 1.1 nM; in the assay on A549 cell (setting [2]), 9.7 nM.
With `CC(C)(C(=O)NCc1ccc(Cl)c(-c2nc(O)nc(-c3ccc(OC4CCC4)nc3)n2)c1)C(F)(F)F` [Example 59], the IC50 was 0.3 nM at human mPGES-1 and 53 nM with A549 cell (setting [1]).
Take `CCOc1ccc(-c2nc(O)nc(-c3cc(CNC(=O)C4(C(F)(F)F)CCCC4)ccc3Cl)n2)cn1` [Example 32]: the IC50 at human mPGES-1 was 0.7 nM; in the assay on A549 cell (setting [1]), 40 nM.
